Where two headings read alike, the source gives them in different places.
Columns and labels:
tACE [1] = target: T1, tACE (Homo sapiens, UniProt P12821); experiment: Kinetic constants for tACE hydrolysis of hippuryl-L-histidyl-L-leucine (Hip-His-Leu); assay type: biochemical; conditions: cells expressing tACEΔ36NJ treated with the glucosidase I inhibitor
T1 construct: made in house; host or cells: CHO-K1 cells, stably transfected; soluble enzyme purified from the medium
Procedure: (§1) Soluble, recombinant tACE (wild-type […], ACEΔ36NJ (SEQ ID NO: 2) and ACE glycosylation mutants), is purified from conditioned media by affinity chromatography on a Sepharose-28-lisinopril affinity resin. The protein is quantitated by amino acid analysis and assayed for activity using the substrate hippuryl-L-histidyl-L-leucine , as described (Ehlers, MRE, Chen, Y—N, Riordan, JF (1991) Proc Natl Acad Sci USA 88, 1009-1013).
(§2) Assays are performed in 100 mM potassium phosphate pH 8.3 containing 300 mM NaCl. Initial velocities are calculated over a range of Hip-His-Leu concentrations (0.2-5.0 mM) under initial rate conditions and fit to the Michaelis-Menten equation. Km and Vmax values are determined by non-linear regression analysis.

[2] = cited from earlier work
tACE glycosylation = experiment: Inhibition of tACE glycosylation in presence of tunicamycin (cellular ACE activity, Western blot); assay type: cell-based; conditions: CHO cells expressing tACE-wt, 5 μg/ml tunicamycin
Procedure: CHO cells expressing tACE-wt are grown to confluence in 6-well plates and induced overnight in 2% medium in the absence and presence of 5 μg/ml tunicamycin. Fresh medium is added and cells are grown in the absence and presence of 5 μg/ml tunicamycin. At 6, 8, 12, 16, 20 and 24 hours detergent-solubilised cell samples are collected. After separating the proteins on 10% SDS-PAGE they are immunodetected by Western blotting.
tACE-wt (SEQ ID NO: 1), tACEΔ36, tACEΔ36-g1, -g2, -g3, -g12, -g13, -g23, -g123 and -g1234 are immunodetected by Western blotting of cell lysates and harvested medium from transfected CHO cells. Proteins are separated on 10% SDS-PAGE and transferred to nitrocellulose membrane (Hybond-C, Amersham). The membrane is probed with a polyclonal rabbit anti-human tACE antibody. The membrane is developed using the ECL chemiluminescence kit (Amersham) and visualised on autoradiographic film, as per instructions.

tACE [3] = experiment: Kinetic constants for tACE hydrolysis of hippuryl-L-histidyl-L-leucine (Hip-His-Leu); assay type: biochemical, human; conditions: hydrolysis of Hip-His-Leu
Procedure: as §1, §2

## CCCCN1C[C@H](O)[C@@H](O)[C@H](O)[C@H]1CO [NB-DNJ, N-butyldeoxynojirimycin]
tACE [1]
  Effect of treating the expressing cells on kinetic properties of the expressed enzymes: do not alter the kinetic properties

## CCOC(=O)[C@H](CCc1ccccc1)N[C@@H](C)C(=O)N1CCC[C@H]1C(=O)O [enalapril]
[2]; similar black patients
  Risk of hospitalization for heart failure: no such effect
[2]; white patients with left ventricular function
  Risk of hospitalization for heart failure: significant reduction

## tunicamycin
tACE glycosylation
  Formation of mature, glycosylated tACE-wt (Western blot): partially inhibits
tACE glycosylation; data not shown
  Cellular tACE-wt activity in treated versus untreated cells: approximately three-fold lower

B1: tACE-wt: wild-type human testis ACE (SEQ ID NO: 1) retaining its 36-residue N-terminus, transmembrane region and juxtamembrane stalk, expressed in CHO cells (protein, listed as Homo sapiens)
chain: SQQVTVTHGTSSQATTSSQTTTHQATAHQTSAQSPNLVTDEAEASKFVEEYDRTSQVVWNEYAEANWNYNTNITTETSKILLQKNMQIANHTLKYGTQARKFDVNQLQNTTIKRIIKKVQDLERAALPAQELEEYNKILLDMETTYSVATVCHPNGSCLQLEPDLTNVMATSRKYEDLLWAWEGWRDKAGRAILQFYPKYVELINQAARLNGYVDAGDSWRSMYETPSLEQDLERLFQELQPLYLNLHAYVRRALHRHYGAQHINLEGPIPAHLLGNMWAQTWSNIYDLVVPFPSAPSMDTTEAMLKQGWTPRRMFKEADDFFTSLGLLPVPPEFWNKSMLEKPTDGREVVCHASAWDFYNGKDFRIKQCTTVNLEDLVVAHHEMGHIQYFMQYKDLPVALREGANPGFHEAIGDVLALSVSTPKHLHSLNLLSSEGGSDEHDINFLMKMALDKIAFIPFSYLVDQWRWRVFDGSITKENYNQEWWSLRLKYQGLCPPVPRTQGDFDPGAKFHIPSSVPYIRYFVSFIIQFQFHEALCQAAGHTGPLHKCDIYQSKEAGQRLATAMKLGFSRPWPEAMQLITGQPNMSASAMLSYFKPLLDWLRTENELHGEKLGWPQYNWTPNSARSEGPLPDSGRVSFLGLDLDAQQARVGQWLLLFLGIALLVATLGLSQRLFSIRHRSLHRHSHGPQFGSEVELRHS
tACE [3]; 100 mM potassium phosphate pH 8.3, 300 mM NaCl
  Km: 2700 µM
tACE [3]; calculated molecular mass of 100 kDa
  kcat: 193 s⁻¹
